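Values below derive from 48-hour exposures of cells grown in 96-well plates, with endpoints linearly interpolated between the two concentrations bracketing the appropriate inhibition level. TGI: total growth inhibition.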 Where a SMILES comes first, the peptide text is derived from it. [ ]: non-standard residue; d: D form. The star is where a group is joined. ξ: configuration not given here. ξD = NC(CC(=O)O)C(=O)O; Ac3c = NC1(C(=O)O)CC1; Boc = CC(C)(C)OC(=O)*; OBn = c1ccc(CO*)cc1
Key:
Experiment in all cases: DTP human tumour cell line panel, 48 h
HL-60(TB) leukemia = test system: HL-60(TB) leukemia
K-562 leukemia = test system: K-562 leukemia
PC-3 prostate = test system: PC-3 prostate
HOP-62 NSCLC = test system: HOP-62 NSCLC
HS 578T breast = test system: HS 578T breast
EKVX NSCLC = test system: EKVX NSCLC
SNB-75 CNS = test system: SNB-75 CNS
KM12 colon = test system: KM12 colon
T-47D breast = test system: T-47D breast
MDA-MB-435 = test system: MDA-MB-435
A549 NSCLC = test system: A549 NSCLC
NCI-H23 lung = test system: NCI-H23 lung
HOP-92 NSCLC = test system: HOP-92 NSCLC
U251 CNS = test system: U251 CNS
786-0 renal = test system: 786-0 renal
HCC-2998 colon = test system: HCC-2998 colon
SF-295 CNS = test system: SF-295 CNS
SF-268 CNS = test system: SF-268 CNS
UACC-62 melanoma = test system: UACC-62 melanoma
ACHN renal = test system: ACHN renal
MDA-MB-231 breast = test system: MDA-MB-231 breast
HCT-116 colon = test system: HCT-116 colon
HT29 colon = test system: HT29 colon
SN12C renal = test system: SN12C renal
LOX IMVI melanoma = test system: LOX IMVI melanoma
MALME-3M melanoma = test system: MALME-3M melanoma
HCT-15 colon = test system: HCT-15 colon
DU-145 prostate = test system: DU-145 prostate
CCRF-CEM leukemia = test system: CCRF-CEM leukemia
SK-MEL-2 melanoma = test system: SK-MEL-2 melanoma
UACC-257 melanoma = test system: UACC-257 melanoma
SNB-19 CNS = test system: SNB-19 CNS
SK-OV-3 ovarian = test system: SK-OV-3 ovarian
A498 renal = test system: A498 renal
NCI-H226 lung = test system: NCI-H226 lung
OVCAR-4 ovarian = test system: OVCAR-4 ovarian
TK-10 renal = test system: TK-10 renal
OVCAR-8 ovarian = test system: OVCAR-8 ovarian
OVCAR-3 ovarian = test system: OVCAR-3 ovarian
MDA-N = test system: MDA-N
SF-539 CNS = test system: SF-539 CNS
BT-549 breast = test system: BT-549 breast
NCI-H460 lung = test system: NCI-H460 lung
NCI/ADR-RES ovarian = test system: NCI/ADR-RES ovarian
UO-31 renal = test system: UO-31 renal
M14 melanoma = test system: M14 melanoma
RXF 393 renal = test system: RXF 393 renal
SK-MEL-5 melanoma = test system: SK-MEL-5 melanoma
OVCAR-5 ovarian = test system: OVCAR-5 ovarian
NCI-H522 lung = test system: NCI-H522 lung
COLO 205 colon = test system: COLO 205 colon
CAKI-1 renal = test system: CAKI-1 renal
MCF7 breast = test system: MCF7 breast
IGROV1 ovarian = test system: IGROV1 ovarian
SK-MEL-28 melanoma = test system: SK-MEL-28 melanoma
SW-620 colon = test system: SW-620 colon
RPMI-8226 leukemia = test system: RPMI-8226 leukemia
MOLT-4 leukemia = test system: MOLT-4 leukemia

In the case of C[N+](C)([O-])CCCNc1c2ccccc2nc2cccc([N+](=O)[O-])c12, the TGI (HL-60(TB) leukemia) is reported as 4.22 µM, the TGI (K-562 leukemia) is reported as over 100 µM and the TGI (PC-3 prostate) is reported as 1260 nM. It also gave a TGI (HOP-62 NSCLC) of 3.23 µM, a TGI (HS 578T breast) of 7.63 µM and a TGI (EKVX NSCLC) of 901 nM. It also gave a TGI (SNB-75 CNS) of 1400 nM, a TGI (KM12 colon) of 4.36 µM and a TGI (T-47D breast) of 3.62 µM. It also gave a TGI (MDA-MB-435) of 647 nM, a TGI (A549 NSCLC) of 795 nM and a TGI (NCI-H23 lung) of 676 nM. The TGI (HOP-92 NSCLC) was 806 nM, the TGI (U251 CNS) was 2240 nM and the TGI (786-0 renal) was 872 nM. The TGI (HCC-2998 colon) was 393 nM, the TGI (SF-295 CNS) was 15 µM and the TGI (SF-268 CNS) was 8.14 µM. It also gave a TGI (UACC-62 melanoma) of 0.491 µM, a TGI (ACHN renal) of 3.74 µM and a TGI (MDA-MB-231 breast) of 1480 nM. The TGI (HCT-116 colon) was 1020 nM, the TGI (HT29 colon) was 606 nM and the TGI (SN12C renal) was 1430 nM. For the same molecule, the TGI (LOX IMVI melanoma) was 6.59 µM, the TGI (MALME-3M melanoma) was 419 nM and the TGI (HCT-15 colon) was 4.93 µM. For the same molecule, the TGI (DU-145 prostate) was 1490 nM, the TGI (CCRF-CEM leukemia) was 1960 nM and the TGI (SK-MEL-2 melanoma) was 421 nM. The TGI (UACC-257 melanoma) was 2250 nM, the TGI (SNB-19 CNS) was 3.2 µM and the TGI (SK-OV-3 ovarian) was over 29.4 µM. For the same molecule, the TGI (A498 renal) was 545 nM, the TGI (NCI-H226 lung) was 1390 nM and the TGI (OVCAR-4 ovarian) was 3.16 µM. The TGI (TK-10 renal) was 8.19 µM, the TGI (OVCAR-8 ovarian) was 20.7 µM and the TGI (OVCAR-3 ovarian) was 5.65 µM. It also gave a TGI (MDA-N) of 524 nM, a TGI (SF-539 CNS) of 3.88 µM and a TGI (BT-549 breast) of 2910 nM. The TGI (NCI-H460 lung) was 707 nM, the TGI (NCI/ADR-RES ovarian) was 75.6 µM and the TGI (UO-31 renal) was 4.34 µM. For the same molecule, the TGI (M14 melanoma) was 772 nM, the TGI (RXF 393 renal) was 349 nM and the TGI (SK-MEL-5 melanoma) was 327 nM. For the same molecule, the TGI (OVCAR-5 ovarian) was 1570 nM, the TGI (NCI-H522 lung) was 670 nM and the TGI (COLO 205 colon) was 322 nM. For the same molecule, the TGI (CAKI-1 renal) was 11.6 µM and the TGI (MCF7 breast) was 623 nM.
For COC(=O)C1(NC(=O)C(CC(=O)OCc2ccccc2)NC(=O)OC(C)(C)C)CC1 (centres undefined) (Boc-[ξD](OBn)-[Ac3c]-OMe), the TGI (K-562 leukemia) was over 100 µM, the TGI (PC-3 prostate) was over 100000 nM and the TGI (IGROV1 ovarian) was over 100 µM. The TGI (HOP-62 NSCLC) was over 100 µM, the TGI (SK-MEL-28 melanoma) was over 100 µM and the TGI (HS 578T breast) was over 100 µM. For the same molecule, the TGI (EKVX NSCLC) was over 100000 nM, the TGI (SNB-75 CNS) was over 100000 nM and the TGI (KM12 colon) was over 100 µM. The TGI (T-47D breast) was over 100 µM, the TGI (MDA-MB-435) was over 100000 nM and the TGI (A549 NSCLC) was over 100000 nM. For the same molecule, the TGI (NCI-H23 lung) was over 100000 nM, the TGI (HOP-92 NSCLC) was over 100000 nM and the TGI (U251 CNS) was over 100000 nM. For the same molecule, the TGI (SW-620 colon) was over 100 µM, the TGI (786-0 renal) was over 100000 nM and the TGI (SF-295 CNS) was over 100 µM. The TGI (SF-268 CNS) was over 100 µM, the TGI (UACC-62 melanoma) was 91.7 µM and the TGI (ACHN renal) was over 100 µM. It also gave a TGI (MDA-MB-231 breast) of over 100000 nM, a TGI (HCT-116 colon) of over 100000 nM and a TGI (HT29 colon) of over 100000 nM. For the same molecule, the TGI (RPMI-8226 leukemia) was over 100 µM, the TGI (SN12C renal) was over 100000 nM and the TGI (LOX IMVI melanoma) was over 100 µM. It also gave a TGI (MALME-3M melanoma) of over 100000 nM, a TGI (HCT-15 colon) of over 100 µM and a TGI (DU-145 prostate) of over 100000 nM. It also gave a TGI (CCRF-CEM leukemia) of over 100000 nM, a TGI (SK-MEL-2 melanoma) of over 100000 nM and a TGI (UACC-257 melanoma) of over 100000 nM. The TGI (SNB-19 CNS) was over 100 µM, the TGI (SK-OV-3 ovarian) was 77.4 µM and the TGI (A498 renal) was over 100000 nM. For the same molecule, the TGI (NCI-H226 lung) was over 100000 nM, the TGI (OVCAR-4 ovarian) was over 100 µM and the TGI (TK-10 renal) was over 100 µM. The TGI (OVCAR-8 ovarian) was over 100 µM, the TGI (OVCAR-3 ovarian) was over 100 µM and the TGI (MDA-N) was over 100000 nM. For the same molecule, the TGI (SF-539 CNS) was over 100 µM, the TGI (BT-549 breast) was over 100000 nM and the TGI (NCI-H460 lung) was over 100000 nM. It also gave a TGI (NCI/ADR-RES ovarian) of over 100 µM, a TGI (UO-31 renal) of over 100 µM and a TGI (M14 melanoma) of over 100000 nM. For the same molecule, the TGI (MOLT-4 leukemia) was over 100 µM, the TGI (RXF 393 renal) was over 100000 nM and the TGI (SK-MEL-5 melanoma) was over 100000 nM. For the same molecule, the TGI (OVCAR-5 ovarian) was over 100000 nM, the TGI (NCI-H522 lung) was over 100000 nM and the TGI (COLO 205 colon) was over 100000 nM. For the same molecule, the TGI (CAKI-1 renal) was over 100 µM and the TGI (MCF7 breast) was over 100000 nM.

— PubChem BioAssay (NCI)
